Reference: PubChem BioAssay (NCI)
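48-hour exposure; five concentrations; linearly interpolated endpoints. GI50: concentration for 50% inhibition of growth. TGI: concentration producing complete growth inhibition.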

How the values were obtained:
Experiment in all cases: inhibition of tumour cell growth, NCI panel, 48 h
NCI-H460 lung = system: NCI-H460 lung
UACC-62 melanoma = system: UACC-62 melanoma
NCI/ADR-RES ovarian = system: NCI/ADR-RES ovarian
SW-620 colon = system: SW-620 colon
UACC-257 melanoma = system: UACC-257 melanoma
A498 renal = system: A498 renal
MDA-MB-435 = system: MDA-MB-435
COLO 205 colon = system: COLO 205 colon
MCF7 breast = system: MCF7 breast
SF-268 CNS = system: SF-268 CNS
TK-10 renal = system: TK-10 renal
K-562 leukemia = system: K-562 leukemia
U251 CNS = system: U251 CNS
HOP-92 NSCLC = system: HOP-92 NSCLC
OVCAR-8 ovarian = system: OVCAR-8 ovarian
SNB-75 CNS = system: SNB-75 CNS
IGROV1 ovarian = system: IGROV1 ovarian
CCRF-CEM leukemia = system: CCRF-CEM leukemia
RXF 393 renal = system: RXF 393 renal
EKVX NSCLC = system: EKVX NSCLC
T-47D breast = system: T-47D breast
PC-3 prostate = system: PC-3 prostate
NCI-H522 lung = system: NCI-H522 lung
MOLT-4 leukemia = system: MOLT-4 leukemia
MALME-3M melanoma = system: MALME-3M melanoma
MDA-MB-468 breast = system: MDA-MB-468 breast
HOP-62 NSCLC = system: HOP-62 NSCLC
OVCAR-5 ovarian = system: OVCAR-5 ovarian
SK-MEL-28 melanoma = system: SK-MEL-28 melanoma
MDA-MB-231 breast = system: MDA-MB-231 breast
SF-295 CNS = system: SF-295 CNS
SK-MEL-5 melanoma = system: SK-MEL-5 melanoma
NCI-H226 lung = system: NCI-H226 lung
SN12C renal = system: SN12C renal
HCT-15 colon = system: HCT-15 colon
HCT-116 colon = system: HCT-116 colon
NCI-H23 lung = system: NCI-H23 lung
CAKI-1 renal = system: CAKI-1 renal
HCC-2998 colon = system: HCC-2998 colon
A549 NSCLC = system: A549 NSCLC
HS 578T breast = system: HS 578T breast
SNB-19 CNS = system: SNB-19 CNS
KM12 colon = system: KM12 colon
SF-539 CNS = system: SF-539 CNS
RPMI-8226 leukemia = system: RPMI-8226 leukemia
SK-MEL-2 melanoma = system: SK-MEL-2 melanoma
OVCAR-3 ovarian = system: OVCAR-3 ovarian
SR leukemia = system: SR leukemia
SK-OV-3 ovarian = system: SK-OV-3 ovarian
HT29 colon = system: HT29 colon
DU-145 prostate = system: DU-145 prostate
ACHN renal = system: ACHN renal
HL-60(TB) leukemia = system: HL-60(TB) leukemia
OVCAR-4 ovarian = system: OVCAR-4 ovarian
BT-549 breast = system: BT-549 breast
LOX IMVI melanoma = system: LOX IMVI melanoma
786-0 renal = system: 786-0 renal
UO-31 renal = system: UO-31 renal
M14 melanoma = system: M14 melanoma

COc1ccc(CN2[C@@H](C(=O)NCc3ccc(C(=O)NO)cc3)Cc3c([nH]c4ccccc34)[C@@H]2C)cc1
GI50 (NCI-H460 lung): 2.86 µM
TGI (NCI-H460 lung): 10.6 µM
GI50 (UACC-62 melanoma): 2.08 µM
TGI (UACC-62 melanoma): 5.29 µM
GI50 (NCI/ADR-RES ovarian): 8.01 µM
TGI (NCI/ADR-RES ovarian): > 21 µM
GI50 (SW-620 colon): 2.34 µM
TGI (SW-620 colon): 11.2 µM
GI50 (UACC-257 melanoma): 2.19 µM
TGI (UACC-257 melanoma): 14.4 µM
GI50 (A498 renal): 0.822 µM
TGI (A498 renal): 6.26 µM
GI50 (MDA-MB-435): 1.27 µM
TGI (MDA-MB-435): 5.56 µM
GI50 (COLO 205 colon): 3.59 µM
TGI (COLO 205 colon): 8.33 µM
GI50 (MCF7 breast): 3.02 µM
TGI (MCF7 breast): 13.8 µM
GI50 (SF-268 CNS): 4.21 µM
TGI (SF-268 CNS): 11.2 µM
GI50 (TK-10 renal): 2.6 µM
TGI (TK-10 renal): 11.4 µM
GI50 (K-562 leukemia): 1.93 µM
TGI (K-562 leukemia): > 21 µM
GI50 (U251 CNS): 2.88 µM
TGI (U251 CNS): 8.88 µM
GI50 (HOP-92 NSCLC): 2.2 µM
TGI (HOP-92 NSCLC): 6.25 µM
GI50 (OVCAR-8 ovarian): 2.44 µM
TGI (OVCAR-8 ovarian): 8.91 µM
GI50 (SNB-75 CNS): 1.23 µM
TGI (SNB-75 CNS): 7.27 µM
GI50 (IGROV1 ovarian): 2.56 µM
TGI (IGROV1 ovarian): 5.78 µM
GI50 (CCRF-CEM leukemia): 1.27 µM
TGI (CCRF-CEM leukemia): > 21 µM
GI50 (RXF 393 renal): 0.724 µM
TGI (RXF 393 renal): 3.71 µM
GI50 (EKVX NSCLC): 2.24 µM
TGI (EKVX NSCLC): 13.5 µM
GI50 (T-47D breast): 3.56 µM
TGI (T-47D breast): 12.8 µM
GI50 (PC-3 prostate): 3.02 µM
TGI (PC-3 prostate): > 21 µM
GI50 (NCI-H522 lung): 1.43 µM
TGI (NCI-H522 lung): 5.35 µM
GI50 (MOLT-4 leukemia): 1.6 µM
TGI (MOLT-4 leukemia): > 21 µM
GI50 (MALME-3M melanoma): 0.874 µM
TGI (MALME-3M melanoma): 4.86 µM
GI50 (MDA-MB-468 breast): 0.861 µM
TGI (MDA-MB-468 breast): 4.45 µM
GI50 (HOP-62 NSCLC): 2.56 µM
TGI (HOP-62 NSCLC): 7.92 µM
GI50 (OVCAR-5 ovarian): 1.43 µM
TGI (OVCAR-5 ovarian): 8.11 µM
GI50 (SK-MEL-28 melanoma): 2.6 µM
TGI (SK-MEL-28 melanoma): 8.76 µM
GI50 (MDA-MB-231 breast): 2.67 µM
TGI (MDA-MB-231 breast): 5.73 µM
GI50 (SF-295 CNS): 3.02 µM
TGI (SF-295 CNS): 6.21 µM
GI50 (SK-MEL-5 melanoma): 2.96 µM
TGI (SK-MEL-5 melanoma): 6.02 µM
GI50 (NCI-H226 lung): 1.98 µM
TGI (NCI-H226 lung): 10.2 µM
GI50 (SN12C renal): 3.88 µM
TGI (SN12C renal): 13 µM
GI50 (HCT-15 colon): 4.56 µM
TGI (HCT-15 colon): 19.8 µM
GI50 (HCT-116 colon): 1.47 µM
TGI (HCT-116 colon): > 21 µM
GI50 (NCI-H23 lung): 3.33 µM
TGI (NCI-H23 lung): 7.51 µM
GI50 (CAKI-1 renal): 2.83 µM
TGI (CAKI-1 renal): 7.86 µM
GI50 (HCC-2998 colon): 2.72 µM
TGI (HCC-2998 colon): 5.81 µM
GI50 (A549 NSCLC): 4.3 µM
TGI (A549 NSCLC): 16.5 µM
GI50 (HS 578T breast): 1.26 µM
TGI (HS 578T breast): 13 µM
GI50 (SNB-19 CNS): 3.49 µM
TGI (SNB-19 CNS): 8.5 µM
GI50 (KM12 colon): 3.3 µM
TGI (KM12 colon): 7.85 µM
GI50 (SF-539 CNS): 2.7 µM
TGI (SF-539 CNS): 7.12 µM
GI50 (RPMI-8226 leukemia): 3.03 µM
TGI (RPMI-8226 leukemia): > 21 µM
GI50 (SK-MEL-2 melanoma): 3.32 µM
TGI (SK-MEL-2 melanoma): 7.3 µM
GI50 (OVCAR-3 ovarian): 2.51 µM
TGI (OVCAR-3 ovarian): 7.84 µM
GI50 (SR leukemia): 0.335 µM
TGI (SR leukemia): > 21 µM
GI50 (SK-OV-3 ovarian): 2.58 µM
TGI (SK-OV-3 ovarian): 6.14 µM
GI50 (HT29 colon): 3.84 µM
TGI (HT29 colon): > 21 µM
GI50 (DU-145 prostate): 4.41 µM
TGI (DU-145 prostate): 17.8 µM
GI50 (ACHN renal): 3.67 µM
TGI (ACHN renal): 9.07 µM
GI50 (HL-60(TB) leukemia): 2.65 µM
TGI (HL-60(TB) leukemia): 15.4 µM
GI50 (OVCAR-4 ovarian): 4.58 µM
TGI (OVCAR-4 ovarian): > 21 µM
GI50 (BT-549 breast): 5.95 µM
TGI (BT-549 breast): 15.6 µM
GI50 (LOX IMVI melanoma): 3.23 µM
TGI (LOX IMVI melanoma): 6.3 µM
GI50 (786-0 renal): 5.15 µM
TGI (786-0 renal): > 21 µM
GI50 (UO-31 renal): 2.93 µM
TGI (UO-31 renal): 6.19 µM
GI50 (M14 melanoma): 4.05 µM
TGI (M14 melanoma): > 21 µM
